The results in this text go back to the RepoRT retention time repository.

Where a name gives a salt, the structure may show the parent alone.

The data set in a line: HILIC, Merck SeQuant ZIC-HILIC, 25 °C, 0.25 mL/min; A: water + 16 mM ammonium formate; B: acetonitrile + 0.1% formic acid, pH 3; gradient (min/%B) 0/97 2/97 10/70 15/10 17/10 18/97 25/97. The following applies: stereoisomer not certain.
On to `O=C(O)Cc1ccc(O)cc1` [4-Hydroxyphenylacetic acid], for which the LC retention time turned out to be 2.34 min. The figure for `O=C(O)Cc1cnc[nH]1` [4-IMIDAZOLEACETATE] is 13.6 min; for `Cc1ccc(O)c(O)c1` [4-METHYLCATECHOL] it is 1.84 min.

Consider `Cc1ncc(CO)c(C(=O)O)c1O` [4-PYRIDOXATE], for which the LC retention time came out at 2.22 min. In the case of `CC1OC(n2cnc3c(N)ncnc32)C(O)C1O` (centres undefined) [5'-DEOXYADENOSINE], the LC retention time came to 2.24 min.

Regarding `NCC(=O)CCC(=O)O` [5-AMINOLEVULINATE], the LC retention time was found to be 13.8 min.

`NCCCCC(=O)O` [5-AMINOPENTANOATE]: the LC retention time was determined as 12.6 min. For `NCC(O)CCC(N)C(=O)O` (centres undefined) [5-HYDROXYLYSINE], the LC retention time was 16.2 min.

On to `O=c1[nH]cc(CO)c(=O)[nH]1` [5-HYDROXYMETHYLURACIL], for which the LC retention time came to 8.25 min. As to `Oc1ccc2[nH]ccc2c1` [5-Hydroxyindole], the LC retention time stood at 2 min. As to `O=C(O)c1cncc(O)c1` [5-Hydroxynicotinic acid], the LC retention time was 6.4 min.

`Cc1cnc(=O)[nH]c1N` [5-METHYLCYTOSINE]: the LC retention time was found to be 11.6 min.

On to `O=C(O)c1ccc(CO)o1` [5-hydroxymethyl-2-furancarboxylic acid], for which the LC retention time came to 4.31 min.

`CC(CCC(=O)O)C1CCC2C3CCC4CC(=O)CCC4(C)C3CCC12C` (centres undefined) [5b-cholanic acid-3-ONE]: the LC retention time is 1.63 min. Take `CC(CCC(=O)O)C1CCC2C3C(O)C(O)C4CC(O)CCC4(C)C3CCC12C` (centres undefined) [5b-cholanic acid-3a-6a-7a-TRIOL]: the LC retention time amounted to 2.19 min. Next, `CC(CCC(=O)O)C1CCC2C3C(=O)CC4CC(O)CCC4(C)C3CC(O)C12C` (centres undefined) [5b-cholanic acid-3a-12a-DIOL-7-ONE]: 2.17 min; `CC(CCC(=O)O)C1CCC2C3C(=O)CC4CC(O)CCC4(C)C3CC(=O)C12C` (centres undefined) [5b-cholanic acid-3a-OL-7-12-DIONE]: 1.92 min; `CC(CCC(=O)O)C1CCC2C3CCC4CC(O)CCC4(C)C3CC(=O)C12C` (centres undefined) [5b-cholanic acid-3a-OL-12-ONE]: 1.81 min.

For the compound `Nc1ccc(C(=O)O)cn1` [6-Aminopyridine-3-carboxylic acid], the LC retention time was determined as 8.01 min. For `NCCc1cc(O)c(O)cc1O` [6-HYDROXYDOPAMINE], the LC retention time is 12.6 min. Regarding `O=C(O)c1ccc(=O)[nH]c1` [6-HYDROXYNICOTINATE], the LC retention time amounted to 6.01 min. As to `O=C(O)C(O)C(O)C(O)C(O)COP(=O)(O)O` (centres undefined) [6-PHOSPHOGLUCONATE], the LC retention time was determined as 15.1 min. In the case of `Cn1c[n+](C2OC(CO)C(O)C2O)c2nc(N)[nH]c(=O)c21` (centres undefined) [7-Methylguanosine], the LC retention time was found to be 12.9 min.

For the compound `Cn1cnc2[nH]c(=O)[nH]c(=O)c21` [7-Methylxanthine], the LC retention time was 2.21 min.

As to `Cn1cnc2nc(N)[nH]c(=O)c21` [7-methylguanine], the LC retention time came out at 9.77 min. On to `O=C(O)CCCCCCCCCO` [10-HYDROXYDECANOATE], for which the LC retention time stood at 1.75 min. Turning to `CCCCCCCCCCCCCC(=O)OCC(O)COP(=O)([O-])OCC[N+](C)(C)C` (centres undefined) [14-0_LysoPC], the LC retention time was 11.3 min.

Take `CCCCCCCCCCCCCC(=O)OC(CO)COP(=O)(O)OCCN` (centres undefined) [14-0_LysoPE]: the LC retention time turned out to be 10.3 min. On to `CCCCCCCCCCCCCCCC(=O)OCC(O)COP(=O)([O-])OCC[N+](C)(C)C` (centres undefined) [16-0_LysoPC], for which the LC retention time was found to be 11.2 min. Consider `CCCCCCCCCCCCCCCC(=O)OCC(O)COP(=O)(O)OCCN` (centres undefined) [16-0_LysoPE], for which the LC retention time was determined as 10.2 min. Regarding `CCCCCCCCCCCCCCCC(=O)OCC(O)COP(=O)(O)O` (centres undefined) [16:0_LysoPA], the LC retention time came to 9.22 min. The figure for `C#CC1(O)CCC2C3CCc4cc(O)ccc4C3CCC21C` (centres undefined) [17a-Ethynylestradiol] is 1.68 min; for `CC(=O)C1(O)CCC2C3CC=C4CC(O)CCC4(C)C3CCC21C` (centres undefined) [17a-Hydroxypregnenolone_H2] it is 2.17 min. `CC(=O)C1(O)CCC2C3CCC4=CC(=O)CCC4(C)C3CCC21C` (centres undefined) [17a-Hydroxyprogesterone]: the LC retention time is 1.61 min. In the case of `CCCCCCCCCCCCCCCCCC(=O)OCC(O)COP(=O)([O-])OCC[N+](C)(C)C` (centres undefined) [18-0_LysoPC], the LC retention time is 11.2 min.

Consider `CCCCCCCCCCCCCCCCCC(=O)OCC(O)COP(=O)(O)OCCN` (centres undefined) [18-0_LysoPE], for which the LC retention time was 10.2 min. `CCCCCCCCC=CCCCCCCCC(=O)OCC(O)COP(=O)(O)O` (centres undefined) [18-1_LysoPA]: the LC retention time is 9.21 min. In the case of `CCCCCCCCC=CCCCCCCCC(=O)OCC(O)COP(=O)([O-])OCC[N+](C)(C)C` (centres undefined) [18-1_LysoPC], the LC retention time amounted to 11.2 min. Next, `CCCCCCCCC=CCCCCCCCC(=O)OCC(O)COP(=O)(O)OCCN` (centres undefined) [18-1_LysoPE]: 10.3 min; `CC(=O)C1(O)CCC2C3CCC4=CC(=O)CCC4(C)C3C(O)CC21C` (centres undefined) [21-Deoxycortisol]: 1.68 min; `CC(CCCC(C)(C)O)C1CCC2C3CC=C4CC(O)CCC4(C)C3CCC12C` (centres undefined) [25-HYDROXYCHOLESTEROL]: 1.6 min. As for `NCCP(=O)(O)O` [(2-AMINOETHYL)PHOSPHONATE], the LC retention time was determined as 15 min. As to `C=C(C)C1CC=C(C)C(=O)C1` [(R)-(-)-Carvone], the LC retention time is 1.55 min. On to `C[C@H](O)CC(=O)O` [(S)-3-Hydroxybutyric acid], for which the LC retention time came out at 2.16 min. Regarding `CC(=O)CC(=O)[O-]` [ACETOACETATE], the LC retention time came to 1.91 min. As to `CC(=O)C(C)O` (centres undefined) [ACETOIN], the LC retention time came out at 2.12 min. On to `CC(=O)OCC[N+](C)(C)C` [ACETYLCHOLINE+C2H2O4], for which the LC retention time turned out to be 10 min.

On to `Nc1ncnc2c1ncn2C1OC(CO)C2OP(=O)(O)OC21` (centres undefined) [ADENOSINE 2'-3'-CYCLIC PHOSPHATE], for which the LC retention time is 11.4 min. For the compound `Nc1ncnc2c1ncn2C1OC(COP(=O)(O)O)C(OP(=O)(O)O)C1O` (centres undefined) [ADENOSINE 3'-5'-DIPHOSPHATE], the LC retention time was determined as 14.9 min.

Turning to `Nc1ncnc2c1ncn2C1OC(COP(=O)(O)OP(=O)(O)O)C(O)C1O` (centres undefined) [ADENOSINE 5'-DIPHOSPHATE], the LC retention time amounted to 14.7 min. For `Nc1ncnc2c1ncn2C1OC(COP(=O)(O)OP(=O)(O)OCC2OC(O)C(O)C2O)C(O)C1O` (centres undefined) [ADENOSINE DIPHOSPHATE RIBOSE], the LC retention time is 14.6 min. Take `Nc1ncnc2c1ncn2C1OC(COP(=O)(O)OP(=O)(O)OP(=O)(O)O)C(O)C1O` (centres undefined) [ADENOSINE TRIPHOSPHATE]: the LC retention time is 15.5 min. Turning to `Nc1ncnc2c1ncn2C1OC(COP(=O)(O)O)C(O)C1O` (centres undefined) [ADENOSINE-MONOPHOSPHATE], the LC retention time came out at 13.6 min.

Regarding `Nc1ncnc2c1ncn2C1OC(CO)C(O)C1O` (centres undefined) [ADENOSINE], the LC retention time was 8.64 min.

On to `Nc1ncnc2c1ncn2C1OC(COP(=O)(O)OP(=O)(O)OC2OC(CO)C(O)C(O)C2O)C(O)C1O` (centres undefined) [ADP-GLUCOSE], for which the LC retention time was determined as 14.7 min. As for `NCCCCN=C(N)N` [AGMATINE SULFATE], the LC retention time came to 17.2 min.

Consider `NC(=O)c1ncn(C2OC(COP(=O)(O)O)C(O)C2O)c1N` (centres undefined) [AICAR], for which the LC retention time was found to be 14.2 min. Next, `NC(=O)NC1NC(=O)NC1=O` (centres undefined) [ALLANTOIN]: 11.2 min; `NC(CCCC(=O)O)C(=O)O` (centres undefined) [AMINOADIPATE]: 13.8 min.

`CC(CN)C(=O)O` (centres undefined) [AMINOISOBUTANOATE]: the LC retention time was 13.4 min. For `Cn1cncc1CC(NC(=O)CCN)C(=O)O` (centres undefined) [ANSERINE], the LC retention time stood at 16.1 min. As for `Nc1ccccc1C(=O)O` [ANTHRANILATE], the LC retention time came to 1.84 min.

In the case of `O=C1OC(C(O)CO)C(O)=C1O` (centres undefined) [ASCORBATE], the LC retention time is 10.5 min. As for `O=C(O)CCCCCCCC(=O)O` [AZELATE], the LC retention time worked out at 1.84 min. Turning to `CC(=O)OCC(=O)O` [Acetoxyacetic acid], the LC retention time was 2.23 min.

Regarding `Nc1ncnc2c1ncn2C1OC(CO)C(OP(=O)(O)O)C1O` (centres undefined) [Adenosine 3'-monophosphate free acid], the LC retention time was 13.2 min. Consider `Nc1ccc(C(=O)NCC(=O)O)cc1` [Aminohippuric acid], for which the LC retention time came out at 5.96 min. For `NCCC(=O)O` [BETA-ALANINE], the LC retention time was found to be 14.1 min. With `NC(=O)c1ccc[n+](C2OC(COP(=O)(O)OP(=O)(O)OCC3OC(n4cnc5c(N)ncnc54)C(O)C3O)C(O)C2O)c1` (stereo not drawn) [BETA-NICOTINAMIDE ADENINE DINUCLEOTIDE], the LC retention time was found to be 14.6 min.

`C=CC1=C(C)C(C=c2[nH]c(=Cc3[nH]c(C=C4NC(=O)C(C)=C4C=C)c(C)c3CCC(=O)O)c(CCC(=O)O)c2C)=NC1=O` [BILIVERDIN]: the LC retention time was found to be 2.06 min.

On to `CCCCC(CC)COC(=O)c1ccccc1C(=O)OCC(CC)CCCC` (centres undefined) [BIS(2-ETHYLHEXYL)PHTHALATE], for which the LC retention time worked out at 1.48 min. In the case of `CCCC=O` [BUTANAL], the LC retention time is 1.71 min. With `CCCC(=O)[O-]` [BUTANOATE], the LC retention time came out at 2.15 min. Consider `C=C(C)C1CCC2(C(=O)O)CCC3(C)C(CCC4C5(C)CCC(O)C(C)(C)C5CCC43C)C12` (centres undefined) [Betulinic acid], for which the LC retention time stood at 1.58 min. As for `CCCCCCCCCCCCCCC=COCC(O)COP(=O)([O-])OCC[N+](C)(C)C` (centres undefined) [C16_PlasmLPC], the LC retention time was found to be 11.1 min. Next, `CCCCCCCCCCCCCCCCCCOCC(O)COP(=O)([O-])OCC[N+](C)(C)C` (centres undefined) [C18_LysoPAF]: 11.3 min; `Cn1c(=O)c2c(ncn2C)n(C)c1=O` [CAFFEINE]: 1.87 min; `NCCC(=O)NC(Cc1cnc[nH]1)C(=O)O` (centres undefined) [CARNOSINE]: 16 min. Regarding `CC(CCC(=O)O)C1CCC2C3C(O)CC4CC(O)CCC4(C)C3CCC12C` (centres undefined) [CHENODEOXYCHOLATE], the LC retention time came out at 1.85 min.
